Results reported in PMC11157481, “Mechanochemical Synthesis of New Praziquantel Cocrystals: Solid-State Characterization and Solubility” (Crystal Growth & Design, 2024).
Where two headings read alike, the source gives them in different places.

Assay: Equilibrium solubility by the shake-flask method with HPLC-UV analysis
Assay type: physicochemical
Conditions: for [PZQ] in SCF attained in 24 hours / [PZQ] in SGF attained in 24 hours / [PZQ] in SIF attained in 24 hours / [PZQ] in H2O attained in 24 hours / solubility thermodynamic at 24 h: shake-flask; for [PZQ] in SCF attained in 24 hours / [PZQ] in SGF attained in 24 hours / [PZQ] in SIF attained in 24 hours / [PZQ] in H2O attained in 24 hours: n = 3; for Increase in solubility in SIF compared to PZQ alone: 24 h, relative to pure PZQ; for solubility thermodynamic at 24 h: thermodynamic from solid
Procedure: The stock solution of PZQ (2 mg/mL) was prepared by dissolving the pure compound in MeCN. Corresponding aliquots were diluted with the same solvent for the preparation of working PZQ solutions. Samples of 10 μL were injected into the chromatographic system. […] Ultrapure water was used as the reference dissolution medium. The solubility of the obtained PZQ cocrystals was determined by the shake-flask method. Briefly, excess PZQ and PZQ cocrystals (the corresponding amount of 6 mg of PZQ) were added to 2 mL vials containing 2 mL of the dissolution medium. The slurry samples were placed in an orbital shaker to achieve uniform mixing at 37 °C for 24 h. At different time intervals (10, 20, 30, 40, 50, 60, and 90 min), an aliquot of 200 μL of each sample was collected after centrifugation, filtered, and analyzed concerning the PZQ content by HPLC-UV analysis.
The solubilities of each cocrystal and PZQ were tested in ultrapure water and the three dissolution media, simulating the biorelevant fluids present along the entire gastrointestinal tract, namely, SGF (simulated gastric fluid), SIF (simulated intestinal fluid), and SCF (simulated colonic fluid).

[1] = simulated colonic fluid pH 7.8, 37 °C
[2] = simulated gastric fluid pH 1.5, 37 °C
[3] = simulated intestinal fluid pH 7.4, 37 °C

Molecule	[PZQ] in SCF attained in 24 hours [1]	[PZQ] in SGF attained in 24 hours [2]	[PZQ] in SIF attained in 24 hours [3]	[PZQ] in H2O attained in 24 hours (ultrapure water, 37 °C)	Increase in solubility in SIF compared to PZQ alone	solubility thermodynamic at 24 h (simulated colonic fluid (SCF), fassgf or other biorelevant, simulated colonic fluid pH 7.8, 37 °C, n = 3, read-out: [PZQ] in SCF attained in 24 hours)	solubility thermodynamic at 24 h (simulated gastric fluid (SGF), simulated gastric fluid pH 1.5, 37 °C, n = 3, read-out: [PZQ] in SGF attained in 24 hours)	solubility thermodynamic at 24 h (simulated intestinal fluid (SIF), fassgf or other biorelevant, simulated intestinal fluid pH 7.4, 37 °C, n = 3, read-out: [PZQ] in SIF attained in 24 hours)	solubility thermodynamic at 24 h (ultrapure water, 37 °C, n = 3, read-out: [PZQ] in H2O attained in 24 hours)
O=C(C1CCCCC1)N1CC(=O)N2CCc3ccccc3C2C1.O=C(C1CCCCC1)N1CC(=O)N2CCc3ccccc3C2C1.O=C(O)c1cccc(O)c1 (stereo not drawn) [Co-Crystal 9, PZQ – 3-HYDROXYBENZOIC ACID (3HBA) (2:1)]	257.95 µg/mL	231.45 µg/mL	226.47 µg/mL	248.12 µg/mL					
O.O=C(C1CCCCC1)N1CC(=O)N2CCc3ccccc3C2C1.O=C(O)c1ccccc1O (stereo not drawn) [Co-Crystal 6, PZQ – SALICYLIC ACID (SAL) – H2O]	258.43 µg/mL	202.80 µg/mL	246.81 µg/mL	220.38 µg/mL					
O=C(C1CCCCC1)N1CC(=O)N2CCc3ccccc3C2C1.O=C(O)c1cccc(O)c1 (stereo not drawn) [Co-Crystal 7, PZQ – 3-HYDROXYBENZOIC ACID (3HBA) (1:1)]	251.67 µg/mL	214.21 µg/mL	232.31 µg/mL	252.60 µg/mL	1.2 fold				
PZQ – 4-AMINOSALICYLIC ACID (4ASA) – MeCN [Co-Crystal 3]	294.31 µg/mL	323.31 µg/mL	264.29 µg/mL	278.89 µg/mL					
PZQ – TRIMESIC ACID (TRI) – H2O [Co-Crystal 4]	193.95 µg/mL	44.98 µg/mL	242.32 µg/mL	56.09 µg/mL	1.26 fold				
O=C(C1CCCCC1)N1CC(=O)N2CCc3ccccc3C2C1 (stereo not drawn) [Co-Crystal 12, praziquantel]						220 µg/mL	200 µg/mL	193 µg/mL	211 µg/mL
PZQ – 5-HYDROXYISOPHTHALIC ACID (5HIP) – MeCN [Co-Crystal 1]	122.86 µg/mL	85.70 µg/mL	361.00 µg/mL	95.51 µg/mL	1.87 fold				
O=C(C1CCCCC1)N1CC(=O)N2CCc3ccccc3C2C1.O=C(O)C(=O)O (stereo not drawn) [Co-Crystal 8, PZQ – OXALIC ACID (OXA)]	252.98 µg/mL	238.78 µg/mL	229.26 µg/mL	250.12 µg/mL					
O=C(C1CCCCC1)N1CC(=O)N2CCc3ccccc3C2C1.O=C(O)c1ccc(O)cc1 (stereo not drawn) [Co-Crystal 5, PZQ – 4-HYDROXYBENZOIC ACID (4HBA)]	247.22 µg/mL	203.21 µg/mL	217.86 µg/mL	225.06 µg/mL					
